The results in this text go back to patent US20120172375A1, “COMPOUNDS AND METHODS OF PROMOTING OLIGODENDROCYTE PRECURSOR DIFFERENTIATION” (priority 2008, published 2012).

The test system of test [1] is cuprizone-fed C57B1/6J mice. Put plainly: Remyelination after cuprizone-mediated demyelination, Black and Gold staining for total myelin. In kind it is in vivo. The note with it: i.p., two doses; for remyelination effect (Black and Gold stain, corpus callosum): 5-100 mg/kg. The procedure: (§1) For in vivo experiments in mice, the cuprizone-mediated demyelination model was implemented as described elsewhere, (Sun et al., 2006; Wu et al., 2008). In brief, 9 week-old C57B1/J6 mice were fed with cuprizone supplemented chow (0.3%, Harlan) during 4-6 weeks. At the end of this period, while the mice were still on cuprizone diet, the animals were injected I.P. with the indicated concentrations of small molecules dissolved in DMSO. 72 hrs later, a second dose was administered and at that point the food was changed to regular chow. 48 hr after the second dose, the animals were sacrificed perfused with 4% paraformaldehyde (PFH) and the brain tissue processed or immunohistochemistry.
Brain tissue staining with Black and Gold to detect total myelin was performed in 30 μm microtome floating sections after three washes in a saline solution (0.9% NaCl). Subsequently, the tissue sections were submerged in a 0.1% Black and Gold solution in saline preheated to 60° C. for 5 min. The tissue was incubated in that solution for 8-10 min. or until achievement of purple color was observed. After washing several times with saline, the staining was fixed with a solution of 2% sodium thiosulfate for 3 min., washed with saline three times and finally mounted and visualized.
Demyelination in mouse brain induced by the copper chelator cuprizone administered in the diet is a well established animal model to study demyelination and subsequent remyelination after cuprizone withdrawal. The effect of cuprizone is evident in several brain areas being the demyeliantion of the corpus callosum the most reliable and consistent. In this study, we analyzed the effect of compounds A, A-7 and B on remyelination of six week cuprizone-fed C57B1/6J mice. Compounds were administered i.p. at the end of the sixth week (5-100 mg/kg) while the mice were still maintained on the cuprizone diet for three more days. At that point, a second injection of compounds was performed and then the mice were returned to regular chow for two more days to allow the natural remyelination process to take place. Mice were then sacrificed and the brain tissue prepared for immunohistochemistry.

Test [2] has as its system cuprizone-fed C57B1/6J mice. Put plainly: Myelin protein (PLP/DM20, MOG) immunostaining densitometry in cuprizone-demyelinated mice. The class given is in vivo. To be noted: i.p., two doses. The procedure:
as §1
Immunodetection of oligodendrocyte and myelin markers was performed. In brief, Oligodendrocyte cells plated on PDL-coated dishes were initially fixed in 2% paraformaldehyde (PFA) for 10 min at room temperature (RT) and then 4% PFA for 15 min, washed three times with PBS and permeabilized with 0.1% Triton X100 for 10 min at RT. After blocking with 3% BSA in PBS for 60 min a RT, the cells were incubated with primary antibodies at the indicated concentrations overnight (ON) at 4° C. The cells were washed three times with cold PBS incubated with secondary antibodies for 45 min at RT, and washed again before mounting. Immunostaining of tissue sections prepared with a sliding microtome (30 μm) was performed. In brief, tris buffered saline (TBS) containing 100 nM Sodium fluoride (TBSS) was used the all dilutions and washes. For antigen retrieval, sections were washed 3 times in TBSS, incubated in 5% methanol and 3% H2O2 for 10 min, washed 2 times, and then incubated in 10% Triton X-100 for 20 min. Blocking of unspecific bonds was performed by incubating the tissue sections with 10% NGS for 1 hr. Primary antibodies were diluted in 3% BSA containing 0.02% Triton X-100 and sections were incubated overnight in this solution. The next day the sections were washed 3 times in TBSS, followed by 1 hr incubation in secondary antibodies (1:1000) at 4° C. […]

In test [3] the test system is oligodendrocyte progenitor cells. Put plainly: Immunocytochemistry for PLP/DM20 and MBP, count of differentiated cells. To be noted: for cell morphology after long-term exposure: compound B at the lowest concentrations (0.1 μM). The class given is cell-based, mouse. As for the experimental part: Immunodetection of oligodendrocyte and myelin markers was performed. In brief, Oligodendrocyte cells plated on PDL-coated dishes were initially fixed in 2% paraformaldehyde (PFA) for 10 min at room temperature (RT) and then 4% PFA for 15 min, washed three times with PBS and permeabilized with 0.1% Triton X100 for 10 min at RT. After blocking with 3% BSA in PBS for 60 min a RT, the cells were incubated with primary antibodies at the indicated concentrations overnight (ON) at 4° C. The cells were washed three times with cold PBS incubated with secondary antibodies for 45 min at RT, and washed again before mounting. Immunostaining of tissue sections prepared with a sliding microtome (30 μm) was performed. In brief, tris buffered saline (TBS) containing 100 nM Sodium fluoride (TBSS) was used the all dilutions and washes. For antigen retrieval, sections were washed 3 times in TBSS, incubated in 5% methanol and 3% H2O2 for 10 min, washed 2 times, and then incubated in 10% Triton X-100 for 20 min. Blocking of unspecific bonds was performed by incubating the tissue sections with 10% NGS for 1 hr. Primary antibodies were diluted in 3% BSA containing 0.02% Triton X-100 and sections were incubated overnight in this solution. The next day the sections were washed 3 times in TBSS, followed by 1 hr incubation in secondary antibodies (1:1000) at 4° C. After several washes, the sections were mounted using Vectashield (Vector Laboratories, Burlingame, Calif.). Visualization of immunostained cells and tissue was performed on a Leica DMR (Wetzlar, Germany) or a Leica SP5 confocal microscope.
The primary screening to select positive compounds was performed at a standard concentration of 10 μM with cell morphology analysis 48 hrs after treatment. Dose response curves at 48 hrs treatment time were performed to determine the minimum concentration compounds A, A-7 and B needed to induce cell maturation. We assessed oligodendrocyte differentiation by cell morphology changes, green fluorescence in cells generated from or Plp-EGFP transgenic mouse, immunostaining for myelin proteins and western blot for expression of the oligodendrocyte markers PLP/DM20 and 2′,3′, cyclic nucleotide 3′ phosphohydrolase (CNPase). EC50 values were also calculated based on results of western blot for myelin proteins and subsequent band densitometry analysis. Additionally, we followed cell differentiation induced over long time exposure to compounds A and B (7 days, 0.1-10 μM).
Compound A-7-induced oligodendrocyte progenitor maturation was also analyzed in comparison to control cells in immunostaining experiments to detect the myelin proteins MBP and PLP. Positive cells for these markers showing processes formation and membranous structures were counted versus total cells and counterstained with the nuclear dye Dapi after 48 hrs (Tables 3 and 4) and 7 days treatment with 0.1, 1 or 10 μM compound A-7 (FIG. 2, B).

Molecules are shown by their SMILES. Several values for one entry are separate records, joined by “and”; a condition that tells them apart may be missing. Equal entries are not always repeated. Entries after “also recorded” stand apart in the source; their conditions may differ.

Regarding `CCS(=O)(=O)N1CCN(C(=O)COc2ccc(-c3ccccc3)cc2)CC1` [Compound A, 1-[(4-biphenylyloxy)acetyl]-4-(ethylsulfonyl)piperazine], the “myelin levels relative to the non-cuprizone-fed animals (Black and Gold)” value in test [1] (100 mg/kg) worked out at 80%. In test [1], the “remyelination effect (Black and Gold stain, corpus callosum)” value (shortened to “remyelination effect”) is “highly significant at the lowest administered dose (5 mg/kg); also recorded: enhance remyelination”. The “effect on myelin protein expression / remyelination enhancement” value in test [2] was “recovery of myelin protein expression”. Further, in test [3] (10 μM, 48 hr (FIG. 1)), the “immunostaining for PLP and MBP: expression of myelin proteins” value is “increased expression”. Moreover, the “differentiated cells, percentage of total cells” value in test [3] (7 days after treatment, 0.1-10 μM, control 9.5%) is given as “about 25%”. Besides, the “cell morphology after long-term exposure” value in test [3] (7 days after treatment) is “clear morphology changes; also recorded: formation of long-thick processes and major membranous structures”. Besides, the “Differentiated Cells (IC, % of Control)” value in test [3] (Table 3, 10 μM, 48 hrs) is listed as 186.1 ± 44.8 n = 4; p <0.05 % of Control; in test [3] (Table 4, 1 μM), 248.9 ± 47.5 % of Control; in test [3] (Table 4, 10 μM) it was 289.3 ± 66.6 % of Control.
On to `O=[N+]([O-])c1ccc(F)c(NS(=O)(=O)c2ccc(F)cc2)c1` [Compound B, 4-fluoro-N-(2-fluoro-5-nitrophenyl)benzenesulfonamide], for which, in test [1], the “remyelination effect” value is given as “did not detect a measurable induction of myelin recovery”. Further, the “effect on myelin protein expression / remyelination enhancement” value in test [2] is reported as “did not detect any relevant effect”. Also, in test [3] (7 days after treatment), the “cell morphology after long-term exposure” value was “clear morphology changes; also recorded: formation of long-thick processes and major membranous structures”. The “percentage of mature cells” value in test [3] (7 days, 10 μM) is on record as “dropped to control levels”.
Regarding `CC(C)N1CCN(C(=O)COc2ccc(-c3ccccc3)cc2)CC1` [Compound A-7, 1-(Biphenyl-4-yloxy)acetyl-4-isopropylpiperazine], the “remyelination effect” value in test [1] was “highly significant remyelination effect; also recorded: enhance remyelination”. The “effect on myelin protein expression / remyelination enhancement” value in test [2] is reported as “recovery of myelin protein expression”. Besides, in test [3] (10 μM), the “percentage of differentiated cells compared to A treated cells” value came to 159.1%. Further, the “concentration at which induction of oligodendrocyte differentiation reached maximum levels” value in test [3] (48 hrs and 7 days treatment) came out at 0.1 µM. Further, the “cell morphology after long-term exposure” value in test [3] (7 days after treatment) is “formation of long-thick processes and major membranous structures”. For the same compound, the “Differentiated Cells (IC, % of Control)” value in test [3] (Table 3, 10 μM, 48 hrs, 10 µM) is 296.1 % of Control; in test [3] (Table 3, 10 μM, 48 hrs, listed as drawing 48, 10 µM), 296.1 ± 19 n = 4; p <0.05 % of Control; in test [3] (Table 4, 1 μM, 1 µM), 343 % of Control and 343.2 ± 52.3 % of Control; in test [3] (Table 4, 10 μM), 296 ± 38.06 % of Control.
